Laboratory results published in patent publication US11000033B2, “Ketone or oxime compound, and herbicide” (NISSAN CHEMICAL CORPORATION, priority 2014, dated 2021).

What was measured:
Type in all cases: in vivo
rapeseed = experiment: Test Example 4: effect on crop by soil treatment (symbol g); settings: 320 g/ha
Method in brief: (§1)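 Plants are raised in a greenhouse (25° C. to 30° C.) from spot-sown seed, which sits under about 1.5 cm of sterilized diluvial soil in a box shared with weed species.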

Galium spurium [1] = experiment: Test Example 4: herbicidal effect by soil treatment (symbol Q); settings: 320 g/ha
Method in brief: (§2)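 Seeds were sown in sterilized diluvial soil, covered with about 1.5 cm of soil, and the soil surface was sprayed with a water-diluted emulsion of the compound at a predetermined rate. Plants grew in a greenhouse at 25° C. to 30° C.; effects were scored visually 3 weeks after application.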

Avena fatua = experiment: Test Example 4: herbicidal effect by soil treatment (symbol I); settings: 320 g/ha
Method in brief: as §2

Veronica persica [2] = experiment: Test Example 4: herbicidal effect by soil treatment (symbol R); settings: 320 g/ha
Method in brief: as §2

Galium spurium [3] = experiment: Test Example 5: herbicidal effect by foliage application, plastic box (symbol Q); settings: 320 g/ha, 3 weeks after application
Method in brief: (§3)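 Emulsion formulation, diluted with water to the intended rate, was applied uniformly to leaves by small sprayer. Recipients were 14-day greenhouse-grown seedlings (25° C. to 30° C.). Assessment followed at 3 weeks.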

wheat = experiment: Test Example 4: effect on crop by soil treatment (symbol e); settings: 320 g/ha
Method in brief: as §1

Digitaria ciliaris = experiment: Test Example 5: herbicidal effect by foliage application, plastic box (symbol F); settings: 320 g/ha, 3 weeks after application
Method in brief: as §3

[4] = test system: Echinochloa crus-galli var. crus-galli; experiment: Test Example 3: herbicidal effect by foliage application, Wagner pot (symbol H); settings: application herbicide amount 320 g/ha
Method in brief: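 Foliar spray of a water-diluted emulsion at a predetermined herbicide amount, applied to 14-day-old plants. Seedlings were raised in flooded alluvial soil (0.1–0.5 cm water) at 25–30 °C in a greenhouse. Injury was rated after 3 weeks against fixed criteria.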

Veronica persica [5] = experiment: Test Example 5: herbicidal effect by foliage application, plastic box (symbol R); settings: 320 g/ha, 3 weeks after application
Method in brief: as §3

Monochoria vaginalis = experiment: Test Example 2: herbicidal activity, application during weed generation in submerged conditions (symbol C); settings: Table 23; application herbicide amount 320 g/ha; grade 0-5 by criteria of Test Example 1
Method in brief: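 Scoring of herbicidal effect took place 3 weeks after treatment, using the criteria of the earlier test. Treatment was water-surface application of diluted emulsifiable compound at a set dose. Plants were at one- to two-leaf stage in submerged alluvial soil (4 cm depth), greenhouse 25-30° C.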

rice plant = experiment: Test Example 5: effect on crop by foliage application, plastic box (symbol b); settings: 320 g/ha, 3 weeks after application
Method in brief: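 Greenhouse test at 25° C. to 30° C. Seeds of crops and weeds were spot-sown in boxes of sterilized diluvial soil under roughly 1.5 cm soil cover, then grown for foliage treatment.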

Stellaria media = experiment: Test Example 4: herbicidal effect by soil treatment (symbol P); settings: 320 g/ha
Method in brief: as §2

SMILES | g: rapeseed, effect grade on crop (rapeseed) | Q: Galium spurium, herbicidal effect grade (Galium spurium [1]) | I: Avena fatua, herbicidal effect grade (Avena fatua) | R: Veronica persica, herbicidal effect grade (Veronica persica [2]) | Q: Galium spurium, herbicidal effect (criteria 0-5) (Galium spurium [3]) | e: wheat, effect grade on crop (wheat) | F: Digitaria ciliaris, herbicidal effect (criteria 0-5) (Digitaria ciliaris) | herbicidal effect on H (Echinochloa crus-galli var. crus-galli), grade 0-5 [4] | R: Veronica persica, herbicidal effect (criteria 0-5) (Veronica persica [5]) | Herbicidal effect grade, C: Monochoria vaginalis (Monochoria vaginalis) | b: directly sowed rice plant, effect on crop (criteria 0-5) (rice plant) | P: Stellaria media, herbicidal effect grade (Stellaria media) | Q: Galium spurium, herbicidal effect grade (Galium spurium [3]) | F: Digitaria ciliaris, herbicidal effect grade (Digitaria ciliaris) | R: Veronica persica, herbicidal effect grade (Veronica persica [5]) | b: directly sowed rice plant, effect on crop grade (rice plant)
CON=C(C)CC1CC(OC(=O)N2CCCCC2)=C(c2c(C)cc(C)cc2C)C1=O (stereo not drawn) [1-151] | 0 (Herbicidal ratio of 5% or lower (almost no effect)) | 0 (Herbicidal ratio of 5% or lower (almost no effect)) | 3 (Herbicidal ratio of 40% or higher and lower than 70%) | 0 (Herbicidal ratio of 5% or lower (almost no effect)) | 0 (Herbicidal ratio of 5% or lower (almost no effect)) | 0 (Herbicidal ratio of 5% or lower (almost no effect)) | 5 (Herbicidal ratio of 90% or more (almost completely withered)) | 4 (Herbicidal ratio of 70% or higher and lower than 90%) | 1 (Herbicidal ratio of 5% or higher and lower than 20%) | 2 (Herbicidal ratio of 20% or higher and lower than 40%) | 4 (Herbicidal ratio of 70% or higher and lower than 90%) | 0 (Herbicidal ratio of 5% or lower (almost no effect)) |  |  |  | 
CON=C(C)CC1CC(OC(=O)N2CCN(C)CC2)=C(c2c(C)cc(C)cc2C)C1=O (stereo not drawn) [1-152] | 0 (Herbicidal ratio of 5% or lower (almost no effect)) | 0 (Herbicidal ratio of 5% or lower (almost no effect)) | 0 (Herbicidal ratio of 5% or lower (almost no effect)) | 0 (Herbicidal ratio of 5% or lower (almost no effect)) | 0 (Herbicidal ratio of 5% or lower (almost no effect)) | 0 (Herbicidal ratio of 5% or lower (almost no effect)) | 5 (Herbicidal ratio of 90% or more (almost completely withered)) | 5 (Herbicidal ratio of 90% or more (almost completely withered)) | 0 (Herbicidal ratio of 5% or lower (almost no effect)) | 0 (Herbicidal ratio of 5% or lower (almost no effect)) | 5 (Herbicidal ratio of 90% or more (almost completely withered)) | 0 (Herbicidal ratio of 5% or lower (almost no effect)) |  |  |  | 
C=CCN(CC=C)C(=O)OC1=C(c2c(C)cc(C)cc2C)C(=O)C(CC(C)=NOC)C1 (stereo not drawn) [1-153] | 0 (Herbicidal ratio of 5% or lower (almost no effect)) | 0 (Herbicidal ratio of 5% or lower (almost no effect)) | 0 (Herbicidal ratio of 5% or lower (almost no effect)) | 0 (Herbicidal ratio of 5% or lower (almost no effect)) | 3 (Herbicidal ratio of 40% or higher and lower than 70%) | 2 (Herbicidal ratio of 20% or higher and lower than 40%) | 5 (Herbicidal ratio of 90% or more (almost completely withered)) | 5 (Herbicidal ratio of 90% or more (almost completely withered)) | 0 (Herbicidal ratio of 5% or lower (almost no effect)) | 0 (Herbicidal ratio of 5% or lower (almost no effect)) | 5 (Herbicidal ratio of 90% or more (almost completely withered)) | 0 (Herbicidal ratio of 5% or lower (almost no effect)) |  |  |  | 
CON=C(C)CC1CC(OC(=O)N(C)c2ccccc2)=C(c2c(C)cc(C)cc2C)C1=O (stereo not drawn) [1-159] | 0 (Herbicidal ratio of 5% or lower (almost no effect)) | 0 (Herbicidal ratio of 5% or lower (almost no effect)) | 0 (Herbicidal ratio of 5% or lower (almost no effect)) | 0 (Herbicidal ratio of 5% or lower (almost no effect)) |  | 1 (Herbicidal ratio of 5% or higher and lower than 20%) |  | 4 (Herbicidal ratio of 70% or higher and lower than 90%) |  | 3 (Herbicidal ratio of 40% or higher and lower than 70%) |  | 0 (Herbicidal ratio of 5% or lower (almost no effect)) | 0 (Herbicidal ratio of 5% or lower (almost no effect)) | 5 (Herbicidal ratio of 90% or more (almost completely withered)) | 0 (Herbicidal ratio of 5% or lower (almost no effect)) | 3 (Herbicidal ratio of 40% or higher and lower than 70%)
CON=C(C)CC1CC(OC(=O)c2c(Cl)nn(C)c2Cl)=C(c2c(C)cc(C)cc2C)C1=O (stereo not drawn) [1-160] | 4 (Herbicidal ratio of 70% or higher and lower than 90%) | 0 (Herbicidal ratio of 5% or lower (almost no effect)) | 0 (Herbicidal ratio of 5% or lower (almost no effect)) | 0 (Herbicidal ratio of 5% or lower (almost no effect)) |  | 2 (Herbicidal ratio of 20% or higher and lower than 40%) |  | 5 (Herbicidal ratio of 90% or more (almost completely withered)) |  | 4 (Herbicidal ratio of 70% or higher and lower than 90%) |  | 0 (Herbicidal ratio of 5% or lower (almost no effect)) | 4 (Herbicidal ratio of 70% or higher and lower than 90%) | 5 (Herbicidal ratio of 90% or more (almost completely withered)) | 3 (Herbicidal ratio of 40% or higher and lower than 70%) | 5 (Herbicidal ratio of 90% or more (almost completely withered))
CON=C(C)CC1CC(OC(=O)c2ccc(S(C)(=O)=O)c(C(=O)OC)c2Cl)=C(c2c(C)cc(C)cc2C)C1=O (stereo not drawn) [1-162] | 4 (Herbicidal ratio of 70% or higher and lower than 90%) | 0 (Herbicidal ratio of 5% or lower (almost no effect)) | 3 (Herbicidal ratio of 40% or higher and lower than 70%) | 0 (Herbicidal ratio of 5% or lower (almost no effect)) |  | 4 (Herbicidal ratio of 70% or higher and lower than 90%) |  | 5 (Herbicidal ratio of 90% or more (almost completely withered)) |  | 2 (Herbicidal ratio of 20% or higher and lower than 40%) |  | 0 (Herbicidal ratio of 5% or lower (almost no effect)) | 4 (Herbicidal ratio of 70% or higher and lower than 90%) | 5 (Herbicidal ratio of 90% or more (almost completely withered)) | 3 (Herbicidal ratio of 40% or higher and lower than 70%) | 5 (Herbicidal ratio of 90% or more (almost completely withered))
CON=C(C)CC1CC(OC(=O)C(C)Oc2ccc(Oc3ccc(Cl)cc3Cl)cc2)=C(c2c(C)cc(C)cc2C)C1=O (stereo not drawn) [1-163] | 4 (Herbicidal ratio of 70% or higher and lower than 90%) | 0 (Herbicidal ratio of 5% or lower (almost no effect)) | 3 (Herbicidal ratio of 40% or higher and lower than 70%) | 0 (Herbicidal ratio of 5% or lower (almost no effect)) |  | 0 (Herbicidal ratio of 5% or lower (almost no effect)) |  | 5 (Herbicidal ratio of 90% or more (almost completely withered)) |  | 3 (Herbicidal ratio of 40% or higher and lower than 70%) |  | 0 (Herbicidal ratio of 5% or lower (almost no effect)) | 3 (Herbicidal ratio of 40% or higher and lower than 70%) | 5 (Herbicidal ratio of 90% or more (almost completely withered)) | 3 (Herbicidal ratio of 40% or higher and lower than 70%) | 5 (Herbicidal ratio of 90% or more (almost completely withered))
